The target of assay [1] is T1, ATP-citrate synthase (Homo sapiens, UniProt P53396).
T1 sequence (P53396 whole entry): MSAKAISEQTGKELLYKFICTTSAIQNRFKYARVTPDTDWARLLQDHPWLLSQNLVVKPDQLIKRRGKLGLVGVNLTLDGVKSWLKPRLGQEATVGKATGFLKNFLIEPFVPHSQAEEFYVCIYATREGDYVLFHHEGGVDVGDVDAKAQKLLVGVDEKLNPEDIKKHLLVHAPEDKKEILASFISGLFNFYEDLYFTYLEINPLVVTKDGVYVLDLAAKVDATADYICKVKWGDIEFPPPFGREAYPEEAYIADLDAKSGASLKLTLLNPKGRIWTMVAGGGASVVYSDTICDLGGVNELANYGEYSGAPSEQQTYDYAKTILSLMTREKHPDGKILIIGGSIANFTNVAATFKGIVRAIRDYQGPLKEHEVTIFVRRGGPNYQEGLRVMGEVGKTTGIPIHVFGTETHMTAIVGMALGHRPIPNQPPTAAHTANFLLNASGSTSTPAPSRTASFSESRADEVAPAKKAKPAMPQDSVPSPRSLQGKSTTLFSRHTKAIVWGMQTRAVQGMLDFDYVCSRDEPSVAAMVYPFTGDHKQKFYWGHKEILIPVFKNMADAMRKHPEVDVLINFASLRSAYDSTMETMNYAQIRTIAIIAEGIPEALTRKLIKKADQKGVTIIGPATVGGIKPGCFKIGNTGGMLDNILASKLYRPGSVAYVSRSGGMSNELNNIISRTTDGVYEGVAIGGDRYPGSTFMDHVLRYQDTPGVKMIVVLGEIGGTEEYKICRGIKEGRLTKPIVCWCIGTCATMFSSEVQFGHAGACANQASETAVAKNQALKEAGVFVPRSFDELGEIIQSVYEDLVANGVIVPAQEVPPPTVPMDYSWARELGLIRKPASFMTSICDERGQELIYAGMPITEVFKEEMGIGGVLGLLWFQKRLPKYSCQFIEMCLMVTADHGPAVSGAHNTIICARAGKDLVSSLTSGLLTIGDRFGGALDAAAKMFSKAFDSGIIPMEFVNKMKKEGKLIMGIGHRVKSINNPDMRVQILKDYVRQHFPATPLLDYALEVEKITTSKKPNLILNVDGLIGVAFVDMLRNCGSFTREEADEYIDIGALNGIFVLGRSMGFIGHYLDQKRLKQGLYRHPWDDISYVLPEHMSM
In words: Inhibition of ATP citrate lyase (unknown origin) using sodium citrate as substrate by ADP-Glo luminescence assay. (ADP-Glo first removes unused ATP, then detects ADP through luciferase.)

In assay [2] the target is T2, ATP-citrate synthase (Homo sapiens) (UniProt P53396).
T2 sequence (whole entry): T1 sequence (P53396 whole entry)
In words: Inhibition of ATP citrate lyase (unknown origin) at 10 uM using sodium citrate as substrate in presence of CoA/ATP by ADP-Glo luminescence assay relative to control.

Assay [3] has as its target T2, ATP-citrate synthase (Homo sapiens). Put plainly: Inhibition of ATP citrate lyase (unknown origin) at 100 uM using sodium citrate as substrate in presence of CoA/ATP by ADP-Glo luminescence assay relative to control.
Assay [4] shares this target. Put plainly: Competitive inhibition of ATP citrate lyase (unknown origin) using sodium citrate as substrate by ADP-Glo luminescence assay.

Activity calls are given as the source filed them. The calls are words filed in the database; no cut-off is given here.

By IC50 is commonly meant the concentration that inhibits the measured activity by half. As usually defined, the inhibition is the relative decrease from the control value, in per cent.

`Cc1oc(C(=O)O)cc1COc1ccc2c(C)c(Cc3ccccc3)c(=O)oc2c1` gave an IC50 in assay [1] of 11.9 µM. Further, the inhibition amounted to 45% in assay [2] and 101% in assay [3]. As for `Cc1oc(C(=O)O)cc1COc1ccc2c3c(c(=O)oc2c1C)CCCC3`, the inhibition amounted to 17% in assay [2] and 90% in assay [3]. Take `O=C(O)C[C@@](O)(C[C@H](O)CCCCCCc1ccc(Cl)cc1Cl)C(=O)O`: the inhibition result in assay [4] was “Active”. For `Cc1oc(C(=O)O)cc1COc1ccc2c(oc(=O)c3ccccc32)c1C`, the inhibition in assay [2] is 32%; in assay [3], 84%. As to `Cc1oc2c(cc(NS(=O)(=O)c3ccc(C(C)(C)C)cc3)c3ccccc32)c1C(=O)O`, the results for the inhibition in assay [2] and in assay [3] were 16% and 59%, respectively. As for `Cc1ccc(S(=O)(=O)Nc2cc3c(C(=O)O)c(C)oc3c3ccccc23)cc1`, the results for the inhibition in assay [2] and in assay [3] were 12% and 42%, respectively. `Cc1oc2ccc(OC(C(=O)O)c3ccccc3)cc2c1C(=O)O` (centres undefined): the results for the inhibition in assay [2] and in assay [3] were 6% and 9%, respectively. In the case of `O=C(O)C[C@@](O)(C(=O)O)[C@H](O)C(=O)O`, in assay [4], the inhibition result was “Active”. Take `Cc1c(OCc2ccc(C(=O)O)o2)ccc2c3c(c(=O)oc12)CCCC3`: the inhibition in assay [2] is 18%; in assay [3], 88%. `CCc1ccc(S(=O)(=O)Nc2cc3c(C(=O)O)c(C)oc3c3ccccc23)cc1` showed an IC50 in assay [1] of 13.8 µM. Also, the inhibition in assay [2] amounted to 42%; in assay [3], 97%. For the compound `Cc1oc(C(=O)O)cc1COc1ccc2c(c1)oc(=O)c1ccccc12`, the inhibition in assay [2] is 3%; in assay [3], 64%. For the compound `Cc1oc2c(cc(NS(=O)(=O)c3ccc(F)cc3)c3ccccc32)c1C(=O)O`, the inhibition in assay [2] was 28%; in assay [3], 95%. Take `CCCCCCc1cc2c3c(c(=O)oc2cc1OCc1cc(C(=O)O)oc1C)CCCC3`: the inhibition in assay [2] is 95%; in assay [3], 100%. The compound `COc1ccc(-c2ccccc2)cc1NS(=O)(=O)c1cc(Cl)cc(Cl)c1O` came in with an IC50 in assay [1] of 0.377 µM.

On to `O=C(O)c1ccc(COc2ccc3c(c2)oc(=O)c2ccccc23)o1`, for which the inhibition turned out to be 9% in assay [2] and 49% in assay [3].

For the origin of these results see ChEMBL document CHEMBL4000242, “Discovery of furan carboxylate derivatives as novel inhibitors of ATP-citrate lyase via virtual high-throughput screening” (Bioorg Med Chem Lett, 2017).
